Laboratory results from patent US20240299393A1, “SMALL MOLECULE DISRUPTORS OF PROTEIN INTERACTIONS IN HISTONE DEACETYLASE COMPLEXES” (Dana-Farber Cancer Institute, Inc., priority 2021, published 2024).
“Also recorded” adds a separate entry of the source.

Assays:
[1] = molecular target: T1, PAH2 domain of yeast Sin3 (Saccharomyces cerevisiae, UniProt P22579); assay: Ligand-detected NMR (DLB, STD, CPMG-R2), yeast Sin3 PAH2; assay type: binding, S. cerevisiae; settings: 300 μM compound, 10 μM protein
T1 construct: Residues 402-473 of S. cerevisiae Sin3 (PAH2 domain) were inserted into pET28PP, pMALC2XE, and pGEX6P2; made in house; host or cells: E. coli BL21 (DE3)
Method: Ligand-detected NMR experiments: all results were acquired using a 3 mm tube at 25° C. on a Bruker 600 MHz Avance II system equipped with a CPPTCI cryoprobe (Bruker BioSpin Corp.). In all experiments, the concentration of E6R was fixed at 300 μM (from a stock of 25 mM in deuterated DMSO) and the concentration of the protein at 10 μM. The volume of deuterated DMSO was kept constant (1.5%) in all tested samples. Right before the experiments, the compound and protein were diluted in 1×PBS containing 0.1% deuterated dithiothreitol (DTT) to a total volume of 200 μL. Samples were diluted by 5% with D2O for magnetic field lock. Spectra were acquired for ligand only, protein only, and ligand+protein. […] STD experiments [Mayer et al 2001] were acquired with 160 scans, with protein irradiation applied for 3 s at 0 ppm and −20 ppm for the on and off resonance experiments, respectively. On and off resonance spectra were collected and stored separately. One-dimensional CPMG-R2 edited experiments [Hajduk et al 1997] were collected for samples with and without proteins using seven CPMG delays (0, 25, 50, 100, 300, 500, and 800 ms) with four scans per delay. Proton spectra used to measure DLB and chemical shift perturbations in the absence and presence of the proteins were recorded with 16 scans using a recycle delay of 3 s. […]

[2] = system: HDAC-regulated genes in spleen and frontal cortex; assay: Pilot RT-qPCR in spleen and frontal cortex of treated mice; assay type: in vivo, mouse; settings: 5, 15 or 50 mg/kg, chronic
Method: (§1) For the pilot RT-qPCR experiment, in addition to the vehicle condition (ethanol 100%/kolliphor/saline 0.9% in a proportion of 1:1:14.4; for the 50 mg/kg dose, 14 μL NaOH 1M were also added), three doses (mg/kg) of E6R were tested: 5, 15, and 50, with 4 (vehicle) or 3 (E6R) animals per group. A dose of 50 mg/kg was picked to conduct further experiments. For the RNA-Seq experiment, E6R was dissolved in a vehicle solution containing saline 55% v/v, DMSO 34% v/v, ethanol 5% v/v, kolliphor EL (Sigma-Aldrich, MO, USA) 5% v/v, NaOH 1M 1% v/v. The vehicle group received the same solution. Animals were injected daily by intraperitoneal (I.P.) injection with 5 μL/g of the solution (50 mg/kg of the drug or vehicle) at 11 am for 10 days. Animal wellness was verified by daily visual inspection and weighing. […] On the 11th day, animals were sacrificed by bleeding via heart puncture under carbon dioxide anesthesia. The brains were quickly removed and the bilateral frontal cortex (bregma 1.90 to 1.40 mm) was dissected followed by total RNA extraction. The spleens were also collected in the pilot RT-qPCR experiments.
Qiagen™ RNeasy mini kits (Valencia, CA) were used following the manufacturer's protocol. […] Purity of the RNA preparation was determined as the 260/280 nm ratio with expected values between 2 and 2.3. […]

[3] = system: mouse frontal cortex transcriptome; assay: RNA-seq of mouse frontal cortex after chronic treatment; assay type: in vivo
Method: as §1
Qiagen™ RNeasy mini kits (Valencia, CA) were used following the manufacturer's protocol. Extracted RNA was further purified using Qiagen™ RNeasy Mini columns to eliminate any trace of DNA, and dissolve in nuclease-free water. Purity of the RNA preparation was determined as the 260/280 nm ratio with expected values between 2 and 2.3. Samples were stored at −80° C. before being used for RT-qPCR (pilot experiment), or shipped to the GENEWIZ company on dry ice for library construction and RNA sequencing.
RNA integrity (RIN) and yield were assessed on an Agilent 2100 Bioanalyzer, and samples with RIN larger than 7 were selected. Prior to the RNA-Seq, ribosomal RNA was depleted from the samples using the RiboMinus™ Human/Mouse Transcriptome Isolation Kit (Thermo Fisher Scientific, Waltham, MA). All samples were sequenced on an Illumina Hi-Seq sequencer. ˜29 million 50 bp single-end reads per sample were obtained. Sequencing adapters were removed using Trimmomatic v.0.33 [Bolger et al 2014]. Quality control at each processing step was performed using the FastQC tool v0.11.2 (quality base calls, GC content distribution, duplicate levels, complexity level) [Andrews 2010]. The Mouse GRCm38/mm10 reference genome was obtained from UCSC Genome Browser Gateway (http://hgdownload.soe.ucsc.edu/goldenPath/mm10/bigZips/chromFa.tar.gz), and the corresponding gene annotation file was obtained from Ensemble (ftp://ftp.ensembl.org/pub/release-83/gtf/mus_musculus/Mus_musculus.GRCm38.83.gtf.gz) on Feb. 20, 2016. Only autosomes, mitochondrial, and sex chromosomes were used. Reads were aligned using the subread v.1.6.2 aligner [Liao et al 2013]. Gene counts were obtained for each sample based on the last […] version of Ensembl transcriptome (v.87) using the featureCounts v.1.2.6 software [Liao et al 2014]. RNA-Seq counts were preprocessed and analyzed for differential expression using the edgeR v.3.24.3 [Robinson et al 2010] R package. P-values for differentially expressed genes were corrected using a false discovery rate (FDR) multiple testing correction method [Benjamini & Hochberg 1995]. Functional enrichment analysis (GO, KEGG) was performed using enrichr [Chen et al 2013]. Enrichment analysis using custom signatures was performed using hypergeometric test in the clusterProfiler v.3.10.1 R package [Yu et al 2012]. […]

T1 sequence (P22579 402-473): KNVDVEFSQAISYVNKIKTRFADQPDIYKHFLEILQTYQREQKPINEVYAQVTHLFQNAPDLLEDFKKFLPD

With C[C@@H](NC(=O)c1c(O)n2ccccc2nc1=O)c1ccccc1 [E6R, 4-hydroxy-2-oxo-N—((R)-1-phenylethyl)-3,4-dihydro-2H-pyrido[, 2-a]pyrimidine-3-carboxamide] the “binding to yeast Sin3 PAH2 by NMR” value [1] was “Sin3 PAH2 binder; also recorded: bound state”, the “expression levels of tested genes in spleen and frontal cortex” value [2] was “able to change expression levels” and the “fewer transcriptomic changes compared to conditional Hdac2 deletion” value ([3]; 50 mg/kg ten days) was “approximately 80 fold”. For the same compound, the “differentially expressed genes between HDAC2 cKO+vehicle and HDAC2 cKO+compound” value ([3]; HDAC2 cKO mice, 50 mg/kg) was “Nine”, the “genes with altered expression in mouse FC relative to WT+vehicle” value ([3]; WT mice, 50 mg/kg I.P. daily 10 days, FDR=0.3, p<0.05, Example 9) was 39 genes and the “genes significantly affected in the FC” value ([3]; WT mice, 50 mg/kg ten days, Example 11) was 48 genes. The “Homer1 expression in FC” value ([3]; WT mice, 50 mg/kg, vs WT+vehicle) was “downregulated”.
